The source of these data is US12054461B2, “Sulfonylurea derivatives and uses thereof” (NodThera Limited, priority 2019, dated 2024).

Structures are written as SMILES.

Test [1] deals with IL-1β release upon NLRP3 activation in peripheral blood mononuclear cells (PBMC). Put plainly: PBMC IC50 determination assay. The test is classed as cell-based. The following applies: sodium salts tested, LPS 1 μg/ml 3 h, compound 30 min, ATP 5 mM 1 h, IL-1β by HTRF. The method, then: The compounds of the present disclosure were tested for their inhibitory activity against IL-1β release upon NLRP3 activation in peripheral blood mononuclear cells (PBMC).
PBMC were isolated from buffy coats by density gradient centrifugation on Histopaque-1077 (Sigma, cat no. 10771). Isolated cells were seeded into the wells (280,000 cells/well) of a 96-well plate and incubated for 3 h with lipopolysaccharide (LPS, 1 μg/ml diluted 1000× from a 1 mg/ml stock solution). The compounds of the present disclosure were added (a single compound per well) and the cells were incubated for 30 min. Next, the cells were stimulated with ATP (5 mM final concentration diluted 20× from a 100 mM stock solution) for 1 h and the cell culture media from the wells were collected for further analysis.
The release of IL-1β into the media was determined by quantitative detection of IL-1β in the media using HTRF®, CisBio cat. No. 62HIL1BPEH. Briefly, cell culture supernatant were dispensed directly into the assay plate containing antibodies labelled with the HTRF® donor and acceptor. A microplate spectrophotometer (BMG) was used to detect signals at 655 nm and 620 nm. The detection range of IL-1β HTRF® was 39-6500 pg/ml.
For orientation: Time-resolved FRET reads energy transfer from a long-lived donor to a nearby acceptor.

Test [2] concerns IL-1β release upon NLRP3 activation in human whole blood. Nature of the test: Whole blood (WB) assay. The test is classed as cell-based. The following applies: sodium salts tested, LPS 1 μg/ml 3 h, compound 30 min, ATP 5 mM 1 h, IL-1β by HTRF. Here is the method: The compounds of the present disclosure were tested for their inhibitory activity against IL-1β release upon NLRP3 activation in human whole blood.
Whole blood was drawn from single healthy donors and treated with sodium heparin anticoagulant. Blood was diluted with cell culture media at a 9:5 ratio, seeded in a 96-well plate and incubated for 3 h with lipopolysaccharide (LPS, 1 μg/ml final concentration diluted 1000× from a 1 mg/ml stock solution). The compounds of the present disclosure were added (a single compound concentration per well) and the blood was incubated for 30 min. Next, the blood was stimulated with ATP (5 mM final concentration diluted 20× from a 100 mM stock solution) for 1 h and the cell culture media from the wells were collected for further analysis.
The release of IL-1β into the media was determined by quantitative detection of IL-1β in the media using HTRF®, CisBio cat. No. 62HIL1BPEH. Briefly, cell culture supernatant were diluted as appropriate to bring IL-1β levels within the HTRF® detection range (36-6500 pg/ml) and subsequently dispensed into the assay plate containing antibodies labelled with the HTRF® donor and acceptor. A microplate spectrophotometer (BMG) was used to detect signals at […] and 620 nm.

The term IC50 denotes the concentration needed to halve the response being measured.

Regarding `COCCN(c1cnn(C)c1)S(=O)(=O)NC(=O)Nc1c2c(cc3c1CCC3)CCC2` [Compound 1, 1-(1,2,3,5,6,7-Hexahydro-s-indacen-4-yl)-3-[(2-methoxyethyl)(1-methyl-1H-pyrazol-4-yl)sulfamoyl]urea], the IC50 in test [1] is less than 0.1 µM; in test [2], 1 to 3 µM.
In the same order, the values of `COCC(COC)N(c1cnn(C)c1)S(=O)(=O)NC(=O)Nc1c2c(cc3c1CCC3)CCC2` [Compound 2, 3-[(1,3-Dimethoxypropan-2-yl)(1-methyl-1H-pyrazol-4-yl)sulfamoyl]-1-(1,2,3,5,6,7-hexahydro-s-indacen-4-yl)urea] are 0.1 to 0.5 µM and 1 to 3 µM.
In the same order, the values of `Cn1cc(N(CC(C)(C)O)S(=O)(=O)NC(=O)Nc2c3c(cc4c2CCC4)CCC3)cn1` [Compound 3, 1-(1,2,3,5,6,7-Hexahydro-s-indacen-4-yl)-3-[(2-hydroxy-2-methylpropyl)(1-methyl-1H-pyrazol-4-yl)sulfamoyl]urea] are 0.1 to 0.5 µM and 1 to 3 µM.
In the same order, the values of `Cn1cc(N(CCC(C)(C)O)S(=O)(=O)NC(=O)Nc2c3c(cc4c2CCC4)CCC3)cn1` [Compound 4, 1-(1,2,3,5,6,7-Hexahydro-s-indacen-4-yl)-3-[(3-hydroxy-3-methylbutyl)(1-methyl-1H-pyrazol-4-yl)sulfamoyl]urea] are less than 0.1 µM and 1 to 3 µM.
Consider `CN(C)C1CCC(N(c2cnn(C)c2)S(=O)(=O)NC(=O)Nc2c3c(cc4c2CCC4)CCC3)C1` (stereo not shown) [Compound 5, 1-{[3-(Dimethylamino)cyclopentyl](1-methyl-1H-pyrazol-4-yl)sulfamoyl}-3-(1,2,3,5,6,7-hexahydro-s-indacen-4-yl)urea], for which the IC50 in test [1] lay within 0.1 to 0.5 µM; in test [2] it was 3 to 10 µM.
In the same order, the values of `CN(C)C1CC(N(c2cnn(C)c2)S(=O)(=O)NC(=O)Nc2c3c(cc4c2CCC4)CCC3)C1` (stereo not shown) [Compound 6, 3-{[3-(Dimethylamino)cyclobutyl](1-methyl-1H-pyrazol-4-yl)sulfamoyl}-1-(1,2,3,5,6,7-hexahydro-s-indacen-4-yl)urea] are less than 0.1 µM and 1 to 3 µM.
The like results for `COCCCN(c1cnn(C)c1)S(=O)(=O)NC(=O)Nc1c2c(cc3c1CCC3)CCC2` [Compound 7, 1-(1,2,3,5,6,7-Hexahydro-s-indacen-4-yl)-3-[(3-methoxypropyl)(1-methyl-1H-pyrazol-4-yl)sulfamoyl]urea] were, in that order, 0.1 to 0.5 µM and 3 to 10 µM.
The like results for `CN(C)CCN(c1cnn(C)c1)S(=O)(=O)NC(=O)Nc1c2c(cc3c1CCC3)CCC2` [Compound 8, 3-{[2-(Dimethylamino)ethyl](1-methyl-1H-pyrazol-4-yl)sulfamoyl}-1-(1,2,3,5,6,7-hexahydro-s-indacen-4-yl)urea] were, in that order, less than 0.1 µM and less than 1 µM.
For the compound `CC(C)n1cc(N(CCN(C)C)S(=O)(=O)NC(=O)Nc2c3c(cc4c2CCC4)CCC3)cn1` [Compound 9, 1-{[2-(Dimethylamino)ethyl][1-(propan-2-yl)-1H-pyrazol-4-yl]sulfamoyl}-3-(1,2,3,5,6,7-hexahydro-s-indacen-4-yl)urea], the values for the IC50 in test [1] and in test [2] were less than 0.1 µM and less than 1 µM, respectively.
The like results for `CN(C)CCCN(c1cnn(C)c1)S(=O)(=O)NC(=O)Nc1c2c(cc3c1CCC3)CCC2` [Compound 10, 3-{[3-(Dimethylamino)propyl](1-methyl-1H-pyrazol-4-yl)sulfamoyl}-1-(1,2,3,5,6,7-hexahydro-s-indacen-4-yl)urea] were, in that order, 0.1 to 0.5 µM and 10 to 20 µM.
For `CN(CCN(c1cnn(C)c1)S(=O)(=O)NC(=O)Nc1c2c(cc3c1CCC3)CCC2)C1COC1` [Compound 11, 1-(1,2,3,5,6,7-Hexahydro-s-indacen-4-yl)-3-({2-[methyl(oxetan-3-yl)amino]-ethyl}(1-methyl-1H-pyrazol-4-yl)sulfamoyl)urea], the IC50 in test [1] was less than 0.1 µM; in test [2], 1 to 3 µM.
